Data reported in ChEMBL document CHEMBL6087446, “Hypoxia Activated Nitric Oxide Donor Compounds for the Prevention and Treatment of Myocardial Hypoxia-Induced Injury” (J Med Chem, 2025).
Active and inactive are the calls of the source. No cut-off for these calls is given here.

Legend:
[1] = Induction of NO release in rat H9c2 cells at 10 uM by Griess reagent assay relative to control; type: functional
[2] = system: H9c2; assay: Induction of NO release in rat H9c2 cells under hypoxia condition at 10 uM by Griess reagent assay relative to control; type: functional
[3] = system: H9c2; assay: Induction of NO release in rat H9c2 cells under hypoxia condition at 10 uM measured for first 30 mins by Griess reagent assay relative to control; type: functional; conditions: 0.5 h
[4] = system: H9c2; assay: Prevention of hypoxia-induced decrease cell viability of rat H9c2 cells at 10 uM by CCK8 assay; type: functional, cell-based
[5] = system: H9c2; assay: Prevention of hypoxia-induced decrease in ATP level in rat H9c2 cells at 10 uM […] (Rvb =- 19.6 nmol/mg); type: ADME, cell-based; conditions: h9c2, 10 µM
[6] = system: H9c2; assay: Prevention of hypoxia-induced apoptosis in rat H9c2 cells assessed as decrease in late apoptosis and necrosis by measuring reduced red fluorescence at 10 uM incubated for 4 hrs by confocal microscopy with Annexin V-FITC and propidium iodide (PI) double staining analysis; type: functional, cell-based
[7] = system: H9c2; assay: Prevention of hypoxia-induced apoptosis in rat H9c2 cells assessed as decrease in early apoptosis by measuring reduced green fluorescence at 10 uM incubated for 4 hrs by confocal microscopy with Annexin V-FITC and propidium iodide (PI) double staining analysis; type: functional, cell-based
[8] = system: Mus musculus; assay: Prevention of myocardial hypoxia injury in isoproterenol-induced male C57 mouse myocardial injury model assessed as heart weight ratio at 5 mg/kg, ip once daily for 3 consecutive days (reference value: 0.60%); type: functional; conditions: time 3 day
[9] = system: Mus musculus; assay: Prevention of myocardial hypoxia injury in isoproterenol-induced male C57 mouse myocardial injury model assessed as pathological myocardial change by cell damage at 5 mg/kg, ip once daily for 3 consecutive days by hematoxylin and eosin staining based analysis; type: functional, organism-based; conditions: time 3.0 day
[10] = system: Mus musculus; assay: Prevention of myocardial hypoxia injury in isoproterenol-induced male C57 mouse myocardial injury model assessed as prevention of lamellar collagen fiber deposition at 5 mg/kg, ip once daily for 3 consecutive days by Masson staining based analysis; type: functional, organism-based; conditions: time 3.0 day
[11] = system: Mus musculus; assay: Prevention of myocardial hypoxia injury in isoproterenol-induced male C57 mouse myocardial injury model assessed as decrease in myocardial size at 5 mg/kg, ip once daily for 3 consecutive days (reference value: 6.47 mm); type: functional; conditions: time 3 day
[12] = system: Mus musculus; assay: Prevention of myocardial hypoxia injury in isoproterenol-induced male C57 mouse myocardial injury model assessed as decrease in heart weight ratio at 5 mg/kg, ip once daily for 3 consecutive days (reference value: 0.68%); type: functional; set-up: scale not given: the % may be the effect or the level left; conditions: time 3 day
[13] = system: Mus musculus; assay: Prevention of myocardial hypoxia injury in isoproterenol-induced male C57 mouse myocardial injury model assessed as pathological myocardial change by measuring myocardial cell damage at 5 mg/kg, IG once daily for 3 consecutive days by hematoxylin and eosin staining based analysis; type: functional, organism-based; conditions: time 3.0 day
[14] = system: Mus musculus; assay: Prevention of myocardial hypoxia injury in isoproterenol-induced male C57 mouse myocardial injury model assessed as prevention of lamellar collagen fiber deposition at 5 mg/kg, IG once daily for 3 consecutive days by Masson staining based analysis; type: functional, organism-based; conditions: time 3.0 day
[15] = system: Mus musculus; assay: Prevention of myocardial hypoxia injury in isoproterenol-induced male C57 mouse myocardial injury model assessed as prevention of bundle collagen fiber deposition at 5 mg/kg, IG once daily for 3 consecutive days by Masson staining based analysis; type: functional, organism-based; conditions: time 3.0 day
[16] = system: Mus musculus; assay: Prevention of myocardial hypoxia injury in isoproterenol-induced male C57 mouse myocardial injury model assessed as decrease in ACE expression at 5 mg/kg, IG once daily for 3 consecutive days by immunohistochemistry; type: functional, organism-based; conditions: time 3.0 day
[17] = system: Mus musculus; assay: Prevention of myocardial hypoxia injury in isoproterenol-induced male C57 mouse myocardial injury model assessed as decrease in mTORC1 expression at 5 mg/kg, IG once daily for 3 consecutive days by immunohistochemistry; type: functional, organism-based; conditions: time 3.0 day
[18] = Toxicity in male C57 mouse assessed as adverse effect at 405 mg/kg, ip measured up to 14 days observation period; type: organism-based; conditions: in vivo, 336 h, time < 14 day

For `CN(N=O)c1ccc(OCc2ccc([N+](=O)[O-])cc2)cc1`, which Activity [1] is on record?
The Activity was under 5%.

And the Activity [2]?
The Activity was “Active”.

With `CN(N=O)c1ccc(OCc2ccccc2[N+](=O)[O-])cc1` as the compound, how does the Activity [1] read?
The Activity was under 5%.

What about the Activity [2] of the same compound?
The Activity was “Active”.

For `Cc1ccc([N+](=O)[O-])c(COc2ccc(N(C)N=O)cc2)c1`, which Activity [1] is on record?
The Activity was under 5%.

Which Activity [1] does the source give for `Cc1ccc(COc2ccc(N(C)N=O)cc2)c([N+](=O)[O-])c1` here?
The Activity was under 5%.

What does the source list for `Cc1cc([N+](=O)[O-])ccc1COc1ccc(N(C)N=O)cc1`?
Activity [1]: <5%; Activity [2]: Active

With `CN(N=O)c1ccc(OCc2ccc(Cl)cc2[N+](=O)[O-])cc1` as the compound, how does the Activity [1] read?
The Activity was under 5%.

Which Activity [1] does the source give for `CN(N=O)c1ccc(OCc2ccc(Br)cc2[N+](=O)[O-])cc1` here?
The Activity was under 5%.

Which Activity [1] does the source give for `Cc1cc(COc2ccc(N(C)N=O)cc2)ccc1[N+](=O)[O-]` here?
The Activity was under 5%.

For `CN(N=O)c1ccc(OCc2ccc([N+](=O)[O-])cc2Cl)cc1`, which Activity [1] is on record?
Its Activity is under 5%.

And the Activity [2]?
The Activity was “Active”.

For `CN(N=O)c1ccc(OCc2c(Cl)cccc2[N+](=O)[O-])cc1`, which Activity [1] is on record?
Its Activity is under 5%.

And the Activity [2]?
The Activity was “Active”.

With `CN(N=O)c1ccc(OCc2cc(Cl)ccc2[N+](=O)[O-])cc1` as the compound, how does the Activity [1] read?
The Activity was under 5%.

Which Activity [3] does the source give for `O=[N+]([O-])O[C@@H]1CO[C@H]2[C@@H]1OC[C@@H]2O` [ISOSORBIDE MONONITRATE] here?
The Activity was about 30%.

And the Activity [4]?
The Activity was “Active; Partially Restores Cell Viability”.

What about the Activity [5] of the same compound?
The Activity was 25.3 nmol/mg.

And the Activity [6]?
Its Activity is “Active; Reduced Red Fluorescence To Certain Extents”.

What about the Activity [7] of the same compound?
The Activity was “Active”.

What about the Activity [8] of the same compound?
Its Activity is 0.55%.

And the Activity [9]?
The Activity was “inactive”.

What about the Activity [10] of the same compound?
Its Activity is “inactive”.

What about the Activity [11] of the same compound?
The Activity was 3.93 mm.

And the Activity [12]?
Its Activity is 0.61%.

What about the Activity [13] of the same compound?
The Activity was “inactive”.

What about the Activity [14] of the same compound?
Its Activity is “Active; N6 More Efficacious Than Ismn”.

And the Activity [15]?
The Activity was “Active; N6 More Efficacious Than Ismn”.

What about the Activity [16] of the same compound?
The Activity was “Active”.

What about the Activity [17] of the same compound?
Its Activity is “Active”.

What about the Activity [18] of the same compound?
Its Activity is “Toxic”.
